Patent publication US20230339866A1, “Quinazoline compounds and the use thereof in the treatment of cancer” (TROBIO THERAPEUTICS PTY LTD, priority 2020, published 2023)

Tests used:
Assay type in all cases: cell-based
A2780 (ovarian) = experiment: Anti-proliferative activity (Cell-Titre luminescence) against A2780 ovarian cancer cells; conditions: 72 h exposure, Cell-Titre luminescent reagent
In short: (§1)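 EC50 derived by nonlinear variable-slope sigmoidal fit of luminescent Cell-Titre viability, normalised to vehicle control. Compound (0.1–30 μM, six concentrations) applied for 72 h after 24 h attachment at 37 °C, 5% CO2.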

A549 (NSCLC) = experiment: Anti-proliferative activity (Cell-Titre luminescence) against A549 non-small cell lung cancer cells; conditions: 72 h exposure, Cell-Titre luminescent reagent
In short: as §1

[1] = test system: SK-N-SH neuroblastoma cells; experiment: Anti-proliferative activity (MTS assay) against SK-N-SH neuroblastoma cells
Method: The ability of compounds of the disclosure to inhibit the proliferation of SK-N-SH neuroblastoma cells was also assessed. […] Cell viability was normalised to control (vehicle alone) and dose response curves and IC50 values (Table 4) were determined using Graph Pad Prism 6.

| IC50 (A2780 (ovarian); Homo sapiens, A2780, 72 h) [µM] | IC50 (A549 (NSCLC); Homo sapiens, A549, 72 h) [µM] | IC50 ([1]; Homo sapiens, SK-N-SH, 72 h) [µM] | IC50 (A2780 (ovarian)) [µM] | IC50 (A549 (NSCLC)) [µM] | IC50 ([1]; 72 hours) [µM] | Molecule |
| --- | --- | --- | --- | --- | --- | --- |
| 0.316 | 1 | 0.42 | – | – | – | CN1CCN(CCNc2nc(NCCc3ccc(C(C)(C)C)cc3)nc3ccccc23)CC1 [Compound 129, N^2-(4-(tert-butyl)phenethyl)-N^4-(2-(4-methylpiperazin-1-yl)ethyl)quinazoline-2,4-diamine] |
| 0.968 | 1.62 | 0.73 | – | – | – | CN1CCN(CCNc2nc(NCCc3cccc(Cl)c3)nc3ccccc23)CC1 [Compound 125, N^2-(3-chlorophenethyl)-N^4-(2-(4-methylpiperazin-1-yl)ethyl)quinazoline-2,4-diamine] |
| 1.51 | 1.39 | 1.26 | – | – | – | FC(F)(F)c1cccc(CCNc2nc(NCCc3c[nH]cn3)c3ccccc3n2)c1 [Compound 84, N^4-(2-(1H-imidazol-4-yl)ethyl)-N^2-(3-(trifluoromethyl)phenethyl)quinazoline-2,4-diamine] |
| 2.21 | 2.74 | 2.61 | – | – | – | CN(C)CCNc1nc(Nc2cccc(C(F)(F)F)c2)nc2ccccc12 [Compound 60, N^4-(2-(dimethylamino)ethyl)-N^2-(3-(trifluoromethyl)phenyl)quinazoline-2,4-diamine] |
| 1.01 | 8.5 | 3.68 | – | – | – | CN1CCN(CCNc2nc(Nc3cccc(F)c3)nc3ccccc23)CC1 [Compound 56, N^2-(3-fluorophenyl)-N^4-(2-(4-methylpiperazin-1-yl)ethyl)quinazoline-2,4-diamine] |
| 1.88 | 7.46 | 4.46 | – | – | – | Fc1cccc(Nc2nc(NCCc3c[nH]cn3)c3ccccc3n2)c1 [Compound 82, N^4-(2-(1H-imidazol-4-yl)ethyl)-N^2-(3-fluorophenyl)quinazoline-2,4-diamine] |
| 3.49 | 3.04 | 2.36 | – | – | – | CN(C)CCCNc1nc(NCCc2cccc(F)c2)nc2ccccc12 [Compound 77, N^4-(3-(dimethylamino)propyl)-N^2-(3-fluorophenethyl)quinazoline-2,4-diamine] |
| 0.467 | 1.49 | 1.47 | – | – | – | COc1ccc(CCNc2nc(NCCCN(C)C)c3ccccc3n2)cc1 [Compound 75, N^4-(3-(dimethylamino)propyl)-N^2-(4-methoxyphenethyl)quinazoline-2,4-diamine] |
| 1.74 | 6.81 | 4.28 | – | – | – | COc1ccc(CCNc2nc(NCCc3c[nH]cn3)c3ccccc3n2)cc1 [Compound 85, N^4-(2-(1H-imidazol-4-yl)ethyl)-N^2-(4-methoxyphenethyl)quinazoline-2,4-diamine] |
| – | – | – | 2.38 | 2.87 | 1.45 | N^4-(2-(dimethylamino)ethyl)-N^2-(3-(trifluoromethyl)phenethyl)quinazoline-2,4-diamine [Compound 64] |
| 2.73 | 6.1 | 3.48 | – | – | – | CCc1ccc(CCNc2nc(NCCO)c3ccccc3n2)cc1 [Compound 89, 2-((2-((4-ethylphenethyl)amino)quinazolin-4-yl)amino)ethan-1-ol] |
| 2.88 | 7.14 | 2.07 | – | – | – | CCc1ccc(Nc2nc(NCCCN(C)C)c3ccccc3n2)cc1 [Compound 71, N^4-(3-(dimethylamino)propyl)-N^2-(4-ethylphenyl)quinazoline-2,4-diamine] |
| 2.74 | 2.25 | 0.68 | – | – | – | Cc1cccc(CCNc2nc(NCCN3CCN(C)CC3)c3ccccc3n2)c1 [Compound 124, N^2-(3-methylphenethyl)-N^4-(2-(4-methylpiperazin-1-yl)ethyl)quinazoline-2,4-diamine] |
| 1.16 | 1.7 | 1.24 | – | – | – | CN(C)CCCNc1nc(NCCc2cccc(C(F)(F)F)c2)nc2ccccc12 [Compound 74, N^4-(3-(dimethylamino)propyl)-N^2-(3-(trifluoromethyl)phenethyl)quinazoline-2,4-diamine] |
| 5.52 | 6.7 | 8.77 | – | – | – | CN(C)CCNc1nc(-c2ccsc2)nc2ccccc12 [Compound 96, N^1,N^1-dimethyl-N^2-(2-(thiophen-3-yl)quinazolin-4-yl)ethane-1,2-diamine] |
| 1.74 | 3.42 | 2.2 | – | – | – | Fc1ccc(CCNc2nc(NCCc3c[nH]cn3)c3ccccc3n2)cc1 [Compound 88, N^4-(2-(1H-imidazol-4-yl)ethyl)-N^2-(4-fluorophenethyl)quinazoline-2,4-diamine] |
| 1.07 | 3.23 | 2.17 | – | – | – | CCc1ccc(CCNc2nc(NCCc3c[nH]cn3)c3ccccc3n2)cc1 [Compound 86, N^4-(2-(1H-imidazol-4-yl)ethyl)-N^2-(4-ethylphenethyl)quinazoline-2,4-diamine] |
| 0.901 | 2.74 | 1.87 | – | – | – | CC(C)C(CNc1nc(-c2cc[nH]c2)nc2ccccc12)N1CCN(C)CC1 (stereo not drawn) [Compound 5, N-(3-methyl-2-(4-methylpiperazin-1-yl)butyl)-2-(1H-pyrrol-3-yl)quinazolin-4-amine] |

Second part, the molecule before the results:

| Molecule | IC50 (A2780 (ovarian); Homo sapiens, A2780, 72 h) [µM] | IC50 (A549 (NSCLC); Homo sapiens, A549, 72 h) [µM] | IC50 ([1]; Homo sapiens, SK-N-SH, 72 h) [µM] | IC50 (A2780 (ovarian)) [µM] | IC50 (A549 (NSCLC)) [µM] | IC50 ([1]; 72 hours) [µM] |
| --- | --- | --- | --- | --- | --- | --- |
| CCc1ccc(Nc2nc(NCCc3c[nH]cn3)c3ccccc3n2)cc1 [Compound 81, N^4-(2-(1H-imidazol-4-yl)ethyl)-N^2-(4-ethylphenyl)quinazoline-2,4-diamine] | 1.2 | 3.1 | 3.82 | – | – | – |
| Fc1cccc(Nc2nc(NCCc3c[nH]cn3)c3ccccc3n2)c1 [Compound 83, N^4-(2-(1H-imidazol-4-yl)ethyl)-N^2-(3-fluorophenyl)quinazoline-2,4-diamine] | – | – | – | 2.2 | 9.16 | 3.88 |
| CN1CCN(CCNc2nc(Nc3cccc(C(F)(F)F)c3)nc3ccccc23)CC1 [Compound 41, N^4-(2-(4-methylpiperazin-1-yl)ethyl)-N^2-(3-(trifluoromethyl)phenyl)quinazoline-2,4-diamine] | 0.855 | 3.06 | 2.22 | – | – | – |
| CN(C)CCNc1nc(-c2cc[nH]c2)nc2ccccc12 [Compound 98, N^1-(2-(1H-pyrrol-3-yl)quinazolin-4-yl)-N^2,N^2-dimethylethane-1,2-diamine] | 1.03 | 5.21 | 3.93 | – | – | – |
| CC(C)c1ccc(CCNc2nc(NCCN3CCN(C)CC3)c3ccccc3n2)cc1 [Compound 128, N^2-(4-isopropylphenethyl)-N^4-(2-(4-methylpiperazin-1-yl)ethyl)quinazoline-2,4-diamine] | 0.606 | 0.943 | 0.57 | – | – | – |
| CCc1ccc(CCNc2nc(NCCCO)c3ccccc3n2)cc1 [Compound 93, 3-((2-((4-ethylphenethyl)amino)quinazolin-4-yl)amino)propan-1-ol] | 2.65 | 10.1 | 4.43 | – | – | – |
| OCCNc1nc(NCc2ccccc2)nc2ccccc12 [Compound 31, 2-((2-(benzylamino)quinazolin-4-yl)amino)ethan-1-ol] | 1.21 | 3.61 | 14.3 | – | – | – |
| CN(C)CCCNc1nc(Nc2cccc(C(F)(F)F)c2)nc2ccccc12 [Compound 69, N^4-(3-(dimethylamino)propyl)-N^2-(3-(trifluoromethyl)phenyl)quinazoline-2,4-diamine] | 0.797 | 2.74 | 2.39 | – | – | – |
| CN1CCN(CCNc2nc(NCCc3cccc(C(F)(F)F)c3)nc3ccccc23)CC1 [Compound 51, N^4-(2-(4-methylpiperazin-1-yl)ethyl)-N^2-(3-(trifluoromethyl)phenethyl)quinazoline-2,4-diamine] | 1.39 | 3.07 | 1.4 | – | – | – |
| CN(C)CCCNc1nc(NCCc2ccc(F)cc2)nc2ccccc12 [Compound 78, N^4-(3-(dimethylamino)propyl)-N^2-(4-fluorophenethyl)quinazoline-2,4-diamine] | 2.95 | 2.33 | 1.86 | – | – | – |
| OCCCNc1nc(NCCc2ccc(F)cc2)nc2ccccc12 [Compound 95, 3-((2-((4-fluorophenethyl)amino)quinazolin-4-yl)amino)propan-1-ol] | 2.78 | 1.76 | 2.62 | – | – | – |
| COc1ccc(CCNc2nc(NCCN3CCN(C)CC3)c3ccccc3n2)cc1 [Compound 54, N^2-(4-methoxyphenethyl)-N^4-(2-(4-methylpiperazin-1-yl)ethyl)quinazoline-2,4-diamine] | 3.8 | 4.65 | 1.15 | – | – | – |
| CN(C)CCNc1nc(-c2ccc[nH]2)nc2ccccc12 [Compound 97, N^1-(2-(1H-pyrrol-2-yl)quinazolin-4-yl)-N^2,N^2-dimethylethane-1,2-diamine] | 3.07 | 4.99 | 8.54 | – | – | – |
| FC(F)(F)c1cccc(CCNc2nc(NCCN3CCNCC3)c3ccccc3n2)c1 [Compound 112, N^4-(2-(piperazin-1-yl)ethyl)-N^2-(3-(trifluoromethyl)phenethyl)quinazoline-2,4-diamine] | 0.767 | 0.938 | 0.46 | – | – | – |
